Assay results published in patent publication US11815435B2, “Beta glucan immunopharmacodynamics” (HiberCell, Inc., priority 2017, dated 2023).

Experiments:
[1] = system: complement activation products, C5a and SC5b-9; assay: Complement activation in plasma by ELISA after IV PGG; format: in vivo, human; conditions: healthy subjects, single dose PGG IV
Protocol: (§1) IPD changes induced by yeast soluble β-glucan were evaluated in a Phase I healthy donor trial, which included three cohorts of 12 healthy human volunteers aged 18-65 years. In Cohort 1, subjects were administered a single dose of 4 mg/kg yeast soluble β-glucan by IV infusion over 2-3 hours. In Cohort 2, subjects were administered 4 mg/kg PGG by IV infusion over 2-3 hours once weekly for 3 weeks. Half of the subjects received premedications which included low dose corticosteroids (4 mg of dexamethasone, PO) and low-dose H1 antagonists (50 mg diphenhydramine.
Subjects were stratified/classified into subgroups based on pre-infusion ABA levels. ABA cutoff levels were selected based on prior studies and are only exemplary. Classification may include only 2 subgroups based on an IgG ABA cutoff level of 15 μg/ml, 20 μg/ml, 25, μg/ml, 30 μg/ml, 35 μg/ml, 40 μg/ml, 45 μg/ml or 50 μg/ml. […] Serum and cellular IPD markers were analyzed pre-infusion, 15 minutes, 30 minutes and 1 hour post-infusion, end of infusion (EOI) and 1 hour, 2 hours, 3 hours, 4 hours, 24 hours, 48 hours and 168 hours after EOI.
Levels of complement activity, measured by […] (Quidel) in plasma, were determined by measuring complement activation products, C5a and SC5b-9. Levels were measured week 1 pre-infusion, 15 minutes, 30 minutes and 1 hour post-infusion, EOL 1 hour EOI and week 2 pre-infusion. […]

[2] = system: anti-β-glucan antibody (ABA IgG, ABA IgM); assay: Example 1: IgG and IgM ABA levels in a cancer subject on IVIG, IMPRIME PGG and pembrolizumab; format: in vivo, human; conditions: same subject and regimen
Protocol: Soluble β-glucan immunotherapy was administered to a subject diagnosed with glucaganoma. The subject's ABA level prior to immunotherapy treatment placed them in the Low-ABA subgroup, and therefore, their ABA level was boosted by administration of IVIG. GAMMAGARD at 100 mg/ml was intravenously administered prior to each treatment, which provided 161 μg ABA/ml. […] Each cycle was 3 weeks.

[3] = system: circulating immune complexes (CIC); assay: Circulating immune complex (CIC) formation in serum by ELISA after IV PGG; format: in vivo, human; conditions: single dose PGG IV, at EOI
Protocol: as §1
Subjects were stratified/classified into subgroups based on pre-infusion ABA levels. ABA cutoff levels were selected based on prior studies and are only exemplary. Classification may include only 2 subgroups based on an IgG ABA cutoff level of 15 μg/ml, 20 μg/ml, 25, μg/ml, 30 μg/ml, 35 μg/ml, 40 μg/ml, 45 μg/ml or 50 μg/ml. Classification may also include 3, 4, 5 or more subgroups with each subgroup corresponding to a specific IgG ABA level range. For example, a 3 subgroup classification may include a Low-ABA subgroup encompassing ABA level ranges of <15 μg/ml, <20 μg/ml, <25 μg/ml or <30 μg/ml, a Mid-ABA subgroup encompassing a range having a low end ABA level of 20 μg/ml, 25 μg/ml, 30 μg/ml, 35 μg/ml, 40 μg/ml or 45 μg/ml and a high end ABA level of 30 μg/ml, 35 μg/ml, 40 μg/ml, 45 μg/ml, 50 μg/ml or 55 μg/ml, and a High-ABA subgroup encompassing ABA level ranges of >35 μg/ml, >40 μg/ml, >45 μg/ml, >50 μg/ml, >55 μg/ml, >60 μg/ml, >65 μg/ml or >70 μg/ml. As discussed in International Published Application No. WO2015084732A1, various ABA cutoff levels may be used for reasons such as differences in soluble β-glucan immunotherapy treatments and preferences regarding inclusiveness and exclusiveness of subgroups. […] Serum and cellular IPD markers were analyzed pre-infusion, 15 minutes, 30 minutes and 1 hour post-infusion, end of infusion (EOI) and 1 hour, 2 hours, 3 hours, 4 hours, 24 hours, 48 hours and 168 hours after EOI.
Total CIC formation was measured in serum by ELISA (Quidel).

[4] = system: neutrophils, monocytes, B cells and subsets of dendritic cells (DC); assay: In vivo immune cell binding by flow cytometry from whole blood at EOI; set-up: species or system human; conditions: High-ABA subjects, anti-PGG MAb staining
Protocol: In vivo immune cell binding was assessed by flow cytometry from whole blood of subjects dosed with PGG at the EOI. Gates were set based on BFDPV staining (anti-PGG MAb) on blood cells prior to infusion.

SC5b-9 = assay: Example 1: complement activation (SC5b-9) in the cancer subject; format: in vivo, human; conditions: cancer subject after conversion to High-ABA subgroup; IMPRIME PGG 4 mg/kg once every 3 weeks

## β(1,6)-[poly-(1,3)-D-glucopyranosyl]-poly-β(1,3)-D-glucopyranose [PGG]
[1]
  increase in complement activation (SC5b-9 levels): correlated with ABA levels with levels peaking at EOI
[2]; cycle 1, day 2 EOI IMPRIME
  ABA IgG: 17.9 µg/mL
  ABA IgM: 6.0 µg/mL
[2]; cycle 1, day 3
  ABA IgG: 14.5 µg/mL
  ABA IgM: 8.3 µg/mL
[2]; cycle 1, day 9
  ABA IgG: 10.2 µg/mL
  ABA IgM: 10.1 µg/mL
[2]; cycle 2, day 1 EOI-IMPRIME
  ABA IgG: 50.4 µg/mL
  ABA IgM: 11.7 µg/mL
[2]; cycle 2, day 1 pre-IVIG
  ABA IgG: 22.3 µg/mL
  ABA IgM: 18.5 µg/mL
[2]; cycle 3, day 1 EOI-IMPRIME
  ABA IgG: 57.4 µg/mL
[2]; cycle 3, day 1 pre-IVIG
  ABA IgG: 21.9 µg/mL
[3]; High-ABA subjects
  increase in CIC: the highest increase in CIC
[3]; Low-ABA subjects
  increase in CIC: little increase in CIC
[3]; Mid-ABA subjects
  increase in CIC: a greater increase in CIC
[4]
  in vivo immune cell binding: bound to neutrophils, monocytes, B cells and subsets of dendritic cells (DC)
SC5b-9
  complement activation (SC5b-9 levels): Acute increases in complement activation
